Experimental data taken from PMC6268315, “Investigating the Spectrum of Biological Activity of Substituted Quinoline-2-Carboxamides and Their Isosteres ^†” (Molecules, 2012).
Values after ≈ are worked out from the molar mass of the structure shown.

Tested on: Mycobacterium tuberculosis CUH071
Test: In vitro antimycobacterial evaluation (alamarBlue)
Assay type: cell-based
Conditions: 168 h, clinical isolate CUH071 with partial INH and PZA resistance, 7 days, read-out: MIC/IC90 M. tuberculosis

Structure (SMILES) | MIC
O=C(c1ccc2ccccc2c1)N1CCCC1 [Compound 22, 1-(2-Naphthoyl)pyrrolidine] | 554 µM (≈ 125 µg/mL)
Cc1cccc(NC(=O)c2ccc3ccccc3n2)c1 [Compound 14b, N-(3-Methylphenyl)quinoline-2-carboxamide] | 469 µM (≈ 123 µg/mL)
O=C(NCCc1ccccc1)c1ccc2ccccc2n1 [Compound 11, N-(2-Phenylethyl)quinoline-2-carboxamide] | 109 µM (≈ 30.1 µg/mL)
CCCCCCCCCCCCNC(=O)c1ccc2ccccc2n1 [Compound 2, N-Dodecylquinoline-2-carboxamide] | 367 µM (≈ 125 µg/mL)
O=C(NC1CCCCCC1)c1ccc2ccccc2n1 [Compound 7, N-Cycloheptylquinoline-2-carboxamide] | 111 µM (≈ 29.8 µg/mL)
COc1ccccc1NC(=O)c1ccc2ccccc2c1 [Compound 32a, N-(2-Methoxyphenyl)-2-naphthamide] | 901 µM (≈ 250 µg/mL)
CC(C)NC(=O)c1ccc2ccccc2n1 [Compound 1, N-Isopropylquinoline-2-carboxamide] | 280 µM (≈ 60 µg/mL)
O=C(NC1CCCCC1)c1ccc2ccccc2n1 [Compound 6, N-Cyclohexylquinoline-2-carboxamide] | 125 µM (≈ 31.8 µg/mL)
O=C(NC1CCCC1)c1ccc2ccccc2n1 [Compound 5, N-Cyclopentylquinoline-2-carboxamide] | 491 µM (≈ 118 µg/mL)
NC(=O)c1cnccn1 [PZA, pyrazinamide, reference compound] | > 812 µM
O=C(c1ccc2ccccc2n1)N1CCCC1 [Compound 3, 2-(Pyrrolidin-1-ylcarbonyl)quinoline] | 552 µM (≈ 125 µg/mL)
NNC(=O)c1ccncc1 [INH, isoniazid, reference compound] | > 729 µM
